Test results: BindingDB's records for doi:10.1021/acs.jmedchem.0c01826 (Athenex, 2021)

Columns and labels:
[1] = Inhibition of P-gp (unknown origin) expressed in MES-SA/DX5 cells assessed as cell growth inhibition after 3 days in presence of 200 nM paclitaxel by MTT assay
[2] = Inhibition of P-gp (unknown origin) expressed in MCF7 cells assessed as increase in reversal of resistance to paclitaxel-induced cytotoxicity by measuring reduction in paclitaxel EC50 at 50 nM incubated for 72 hrs in presence of paclitaxel by SRB assay (Rvb = 11.5 nM)
[3] = Inhibition of P-gp (unknown origin) expressed in MES-SA/DX5 cells assessed as increase in reversal of resistance to paclitaxel-induced cytotoxicity by measuring reduction in paclitaxel EC50 at 50 nM incubated for 72 hrs in presence of paclitaxel by SRB assay (Rvb = 294.6 nM)

Compound	EC50 [1] [nM]	EC50 [2] [nM]	EC50 [3] [nM]
COc1cc2c(cc1OC)CN(CCc1ccc(NC(=O)c3cc(OC)c(OC)cc3NC(=O)c3cnc4ccccc4c3)cc1)CC2	16		
COc1cc2c(cc1OC)CN(CCc1ccc(-n3nnc(-c4cc(OC)c(OC)cc4NC(=O)c4cnc5ccccc5c4)n3)cc1)CC2	75	7.9	15
COc1cc2c(cc1OC)CN(CCc1ccc(-n3nnc(-c4cc(OC)c(OC)cc4NC(=O)c4ccc5ccccc5n4)n3)cc1)CC2		12	110
COc1cc2c(cc1OC)CN(CCc1ccc(-n3nnc(-c4cc(OC)c(OC)cc4NC(=O)c4cc5ccccc5cn4)n3)cc1)CC2		8.5	84
COc1cc2c(cc1OC)CN(CCc1ccc(-n3nnc(-c4cc(OC)c(OC)cc4NC(=O)c4cccc5cccnc45)n3)cc1)CC2		5.4	69
COc1cc2c(cc1OC)CN(CCc1ccc(-n3nnc(-c4cc(OC)c(OC)cc4NC(=O)c4nccc5ccccc45)n3)cc1)CC2		7.6	162
COc1cc2c(cc1OC)CN(CCc1ccc(-n3nnc(-c4cc(OC)c(OC)cc4NC(=O)c4cncc5ccccc45)n3)cc1)CC2		9.1	89
COc1cc2c(cc1OC)CN(CCc1ccc(-n3nnc(-c4cc(OC)c(OC)cc4NC(=O)c4cccnc4)n3)cc1)CC2		9.1	98
COc1cc2c(cc1OC)CN(CCc1ccc(-n3nnc(-c4cc(OC)c(OC)cc4NC(=O)c4ccc5ccccc5c4)n3)cc1)CC2		10	113
COc1cc2c(cc1OC)CN(CCc1ccc(-n3nnc(-c4cc(OC)c(OC)cc4NC(=O)c4cnccn4)n3)cc1)CC2		9.1	98
COc1cc2c(cc1OC)CN(CCc1ccc(-n3nnc(-c4cc(OC)c(OC)cc4NC(=O)c4ccccc4)n3)cc1)CC2		7.7	87
COc1cc2c(cc1OC)CN(CCc1ccc(-n3nnc(-c4cc(OC)c(OC)cc4NC(=O)c4ccc(F)c(F)c4)n3)cc1)CC2		10	80
COc1cc2c(cc1OC)CN(CCc1ccc(-n3nnc(-c4cc(OC)c(OC)cc4NC(=O)c4ccsc4)n3)cc1)CC2		6.4	66
COc1cc2c(cc1OC)CN(CCc1ccc(-n3nnc(-c4cc(OC)c(OC)cc4NC(=O)c4ccoc4)n3)cc1)CC2		10	84
COc1cc2c(cc1OC)CN(CCc1ccc(-n3nnc(-c4cc(OC)c(OC)cc4NC(=O)c4coc5ccccc5c4=O)n3)cc1)CC2		9	140
COc1cc2c(cc1OC)CN(CCc1ccc(-n3nnc(-c4cc(OC)c(OC)cc4NC(=O)c4cc(=O)c5c(OC)cccc5o4)n3)cc1)CC2		7.4	5.9
COc1cc2c(cc1OC)CN(CCc1ccc(-n3nnc(-c4cc(OC)c(OC)cc4NC(=O)c4cc(=O)c5cc(F)ccc5o4)n3)cc1)CC2		8.1	7.5
COc1cc2c(cc1OC)CN(CCc1ccc(-n3nnc(-c4cc(OC)c(OC)cc4NC(=O)c4cc(=O)c5cc(C)ccc5o4)n3)cc1)CC2		6.5	4
COc1cc2c(cc1OC)CN(CCc1ccc(-n3nnc(-c4cc(OC)c(OC)cc4NC(=O)c4cc(=O)c5ccccc5o4)n3)cc1)CC2 [Encequidar]	13	7.9	4.9
